Reference: patent publication US20130344026A1, “Dimeric Smac Mimetics” (priority 2009, published 2013)
Where two headings read alike, the source gives them in different places.

Test system: PANC-1 cells
Assay: cell viability assay in PANC-1 cells (compound alone, + 100 ng/ml TNFa, + 300 ng/ml TRAIL)
Format: cell-based
[1] = Homo sapiens, PANC-1, compound alone, Tables 6-10, read-out: IC50 (μM) in cell viability assay in PANC-1 cells: Compound alone
[2] = with 100 ng/ml TNFa, Tables 6-10, read-out: IC50 (μM) in cell viability assay in PANC-1 cells: Compound + 100 ng/ml TNFa
[3] = with 300 ng/ml TRAIL, Tables 6-10, read-out: IC50 (μM) in cell viability assay in PANC-1 cells: Compound + 300 ng/ml TRAIL
[4] = Homo sapiens, PANC-1, compound alone, Tables 15-18, read-out: IC50 (uM) in cell viability assay in PANC-1 cells: Cmpnd alone
[5] = with 100 ng/ml TNFa, Tables 15-18, read-out: IC50 (uM) in cell viability assay in PANC-1 cells: Cmpnd + 100 ng/ml TNFa
[6] = with 300 ng/ml TRAIL, Tables 15-18, read-out: IC50 (uM) in cell viability assay in PANC-1 cells: Cmpnd + 300 ng/ml TRAIL

Structure (SMILES) | IC50 [1] [µM] | IC50 [2] [µM] | IC50 [3] [µM] | IC50 [4] [µM] | IC50 [5] [µM] | IC50 [6] [µM]
CN[C@@H](C)C(=O)N[C@H](C(=O)N1C[C@@H](NC(=O)CCc2ccc(C(=O)N[C@H]3C[C@@H](C(=O)N[C@@H]4CCCc5ccccc54)N(C(=O)[C@@H](NC(=O)[C@H](C)NC)C(C)(C)C)C3)cc2)C[C@H]1C(=O)N[C@@H]1CCCc2ccccc21)C(C)(C)C [Compound 191] | > 1 | 0.013 | 0.012 | – | – | –
CNC(C)C(=O)Nc1nc(-c2ccccc2)c(C(=O)NC[C@@H](NC(=O)[C@@H]2CCCN2C(=O)[C@@H](NC(=O)[C@H](C)NC)C(C)(C)C)c2ccccc2)s1 (stereo partly shown) [Compound 192] | > 1 | 0.659 | > 1 | – | – | –
CN[C@@H](C)C(=O)Nc1nc(CC(=O)NC[C@@H](NC(=O)[C@@H]2CCCN2C(=O)[C@@H](NC(=O)[C@H](C)NC)C(C)(C)C)c2ccccc2)cs1 [Compound 193] | > 1 | > 1 | > 1 | – | – | –
CN[C@@H](C)C(=O)N[C@H](C(=O)N[C@@H](CCNC(=O)c1ccc(C#Cc2ccc(C(=O)N[C@H]3C[C@@H](C(=O)N[C@@H]4CCCc5ccccc54)N(C(=O)[C@@H](NC(=O)[C@H](C)NC)C(C)(C)C)C3)cc2)cc1)C(=O)NC(C)C(C)C)C(C)C (stereo partly shown) [Compound 194] | > 1 | 0.057 | 0.06 | – | – | –
CN[C@@H](C)C(=O)Nc1nc(CC(=O)NCCc2cn([C@H]3C[C@@H](C(=O)N[C@@H]4CCCc5ccccc54)N(C(=O)[C@@H](NC(=O)[C@H](C)NC)C(C)(C)C)C3)nn2)cs1 [Compound 195] | > 1 | > 1 | > 1 | – | – | –
CN[C@@H](C)C(=O)Nc1nc(-c2ccccc2)c(C(=O)NCCc2cn([C@H]3C[C@@H](C(=O)N[C@@H]4CCCc5ccccc54)N(C(=O)[C@@H](NC(=O)[C@H](C)NC)C(C)(C)C)C3)nn2)s1 [Compound 196] | > 1 | 0.577 | 0.622 | – | – | –
CN[C@@H](C)C(=O)NC(C(=O)N[C@@H](CCNC(=O)CCc1cn([C@H]2C[C@@H](C(=O)N[C@@H]3CCCc4ccccc43)N(C(=O)[C@@H](NC(=O)[C@H](C)NC)C(C)(C)C)C2)nn1)C(=O)N[C@H](C)c1ccccc1)C(C)(C)C (stereo partly shown) [Compound 197] | > 1 | 0.128 | 0.18 | – | – | –
CN[C@@H](C)C(=O)NC(C(=O)N[C@@H](CCNC(=O)CCc1cn([C@H]2C[C@@H](C(=O)N[C@@H]3CCCc4ccccc43)N(C(=O)[C@@H](NC(=O)[C@H](C)NC)C(C)(C)C)C2)nn1)C(=O)N[C@H](C)C(C)C)C(C)(C)C (stereo partly shown) [Compound 198] | > 1 | 0.109 | 0.069 | – | – | –
CN[C@@H](C)C(=O)N[C@@H](CCCCNC(=O)C[C@H](NC(=O)[C@H](C)NC)C(=O)N1CCC[C@H]1C(=O)N[C@@H]1CCCc2ccccc21)C(=O)N1CCC[C@H]1C(=O)N[C@@H]1CCCc2ccccc21 [Compound 199] | > 1 | 0.046 | 0.074 | – | – | –
CN[C@@H](C)C(=O)N[C@@H](CC(=O)NCC[C@H](NC(=O)[C@@H](NC(=O)[C@H](C)NC)C(C)(C)C)C(=O)N[C@@H]1CCCc2ccccc21)C(=O)N1CCC[C@H]1C(=O)N[C@@H]1CCCc2ccccc21 [Compound 200] | > 1 | 0.046 | 0.084 | – | – | –
CN[C@@H](C)C(=O)N[C@H](C(=O)N[C@@H](CCNC(=O)c1ccc(CCc2ccc(C(=O)N[C@@H]3C[C@@H](C(=O)N[C@@H]4CCCc5ccccc54)N(C(=O)[C@@H](NC(=O)[C@H](C)NC)C(C)(C)C)C3)cc2)cc1)C(=O)NC(C)C(C)C)C(C)C (stereo partly shown) [Compound 201] | > 1 | 0.027 | 0.057 | – | – | –
CN[C@@H](C)C(=O)NC(C(=O)N[C@@H](CCC(=O)NCc1cn([C@H]2C[C@@H](C(=O)N[C@@H]3CCCc4ccccc43)N(C(=O)[C@@H](NC(=O)[C@H](C)NC)C(C)(C)C)C2)nn1)C(=O)N[C@H](C)C(C)C)C(C)C (stereo partly shown) [Compound 202] | > 1 | 0.679 | 0.674 | – | – | –
CN[C@@H](C)C(=O)NC(C(=O)N[C@@H](CCC(=O)NCCc1cn([C@H]2C[C@@H](C(=O)N[C@@H]3CCCc4ccccc43)N(C(=O)[C@@H](NC(=O)[C@H](C)NC)C(C)(C)C)C2)nn1)C(=O)N[C@H](C)C(C)C)C(C)C (stereo partly shown) [Compound 203] | > 1 | 0.683 | 0.616 | – | – | –
CN[C@@H](C)C(=O)NC(C(=O)N[C@@H](CCNC(=O)CCc1cn([C@H]2C[C@@H](C(=O)N[C@@H]3CCCc4ccccc43)N(C(=O)[C@@H](NC(=O)[C@H](C)NC)C3CCCCC3)C2)nn1)C(=O)N[C@H](C)C(C)C)C(C)C (stereo partly shown) [Compound 204] | > 1 | 0.392 | 0.564 | – | – | –
CN[C@@H](C)C(=O)N[C@H](C(=O)N1C[C@@H](n2cc(CCC(=O)N[C@@H]3CC(C(=O)N[C@H](C)c4ccccc4)N(C(=O)C(NC(=O)[C@H](CO)NC)C(C)(C)C)C3)nn2)C[C@H]1C(=O)N[C@@H]1CCCc2ccccc21)C(C)(C)C (stereo partly shown) [Compound 205] | > 1 | 0.04 | 0.059 | – | – | –
CN[C@@H](C)C(=O)N[C@H](C(=O)N1C[C@@H](OC(=O)c2cccc(C(=O)O[C@H]3C[C@@H](C(=O)N[C@H]4CCCc5ccccc54)N(C(=O)[C@@H](NC(=O)[C@H](C)NC)C(C)(C)C)C3)c2)C[C@H]1C(=O)N[C@H]1CCCc2ccccc21)C(C)(C)C [Compound 206] | > 1 | – | – | – | – | –
CN[C@@H](C)C(=O)N[C@@H](CCCCNC(=O)c1cccc(C(=O)NCCCC[C@H](NC(=O)[C@H](C)NC)C(=O)N2CCC[C@H]2Cn2nnnc2Sc2ccccc2)c1)C(=O)N1CCC[C@H]1Cn1nnnc1Sc1ccccc1 [Compound 207] | > 1 | 0.263 | 0.398 | – | – | –
CN[C@@H](C)C(=O)N[C@@H](CCCCNC(=O)c1cc(C(=O)NCCCC[C@H](NC(=O)[C@H](C)NC)C(=O)N2CCC[C@H]2Cn2nnnc2Sc2ccccc2)[nH]n1)C(=O)N1CCC[C@H]1Cn1nnnc1Sc1ccccc1 [Compound 208] | > 1 | 0.614 | > 1 | – | – | –
CN[C@@H](C)C(=O)N[C@H](C(=O)N1CCCC1C(=O)N[C@H](COCC#CC#CCOC[C@@H](NC(=O)[C@H](C)NC(=O)[C@H](NC(=O)[C@@H](C)NC)C1CCCCC1)C(C)C)C1CCCCC1)C(C)(C)C (stereo partly shown) [Compound 209] | – | 0.0007 | 0.0007 | – | – | –
C#CC[C@H](NC(=O)[C@H](C)NC)C(=O)N1C[C@@H](NC(=O)c2cccc(C(=O)N[C@H]3C[C@@H](C(=O)N[C@@H]4CCCc5ccccc54)N(C(=O)[C@@H](NC(=O)[C@H](C)NC)C(C)(C)C)C3)c2)C[C@H]1C(=O)N[C@@H]1CCCc2ccccc21 [Compound H-5] | – | – | – | > 1 | 0.008 | 0.009
C#CC[C@H](NC(=O)[C@H](C)NC)C(=O)N1C[C@@H](NC(=O)c2cc(N)cc(C(=O)N[C@H]3C[C@@H](C(=O)N[C@@H]4CCCc5ccccc54)N(C(=O)[C@@H](NC(=O)[C@H](C)NC)C(C)(C)C)C3)c2)C[C@H]1C(=O)N[C@@H]1CCCc2ccccc21 [Compound H-6] | – | – | – | > 1 | 0.0229 | 0.0611
CN[C@@H](C)C(=O)N[C@H](C(=O)N1CCCC1C(=O)N[C@H](COCC#CC#CCOC[C@@H](NC(=O)[C@H](C)NC(=O)[C@H](NC(=O)[C@@H](C)NC)C1CCCCC1)C(C)C)C1CCCCC1)C(C)(C)C (stereo partly shown) [Compound H-7] | – | – | – | > 1 | 0.0007 | 0.0007
CN[C@@H](C)C(=O)N[C@H](C(=O)N1CCCC1C(=O)N[C@H](COCC#CC#CCOC[C@@H](NC(=O)[C@H](C)NC(=O)[C@H](NC(=O)[C@@H](CO)NC)C1CCCCC1)C(C)C)C1CCCCC1)C(C)(C)C (stereo partly shown) [Compound H-8] | – | – | – | > 1 | 0.017 | 0.033
CC[C@@H](NC)C(=O)N[C@@H](C(=O)N[C@@H](C)C(=O)N[C@H](COCC#CC#CCOC[C@@H](NC(=O)C1CCCN1C(=O)[C@@H](NC(=O)[C@H](C)NC)C(C)(C)C)C1CCCCC1)C(C)C)C1CCCCC1 (stereo partly shown) [Compound H-9] | – | – | – | > 1 | 0.005 | 0.004
CN[C@@H](C)C(=O)N[C@H](C(=O)N1C[C@@H](NC(=O)c2ccc3cc(C(=O)NCC[C@H](NC(=O)[C@@H](NC(=O)[C@H](CO)NC)C4CCCCC4)C(=O)N[C@H](C)C(C)C)ccc3c2)C[C@H]1C(=O)N[C@@H]1CCCc2ccccc21)C(C)(C)C [Compound H-10] | – | – | – | > 1 | 0.001 | 0.0009
CC[C@H](NC)C(=O)N[C@H](C(=O)N[C@@H](CCNC(=O)c1ccc2cc(C(=O)N[C@H]3C[C@@H](C(=O)N[C@@H]4CCCc5ccccc54)N(C(=O)[C@@H](NC(=O)[C@H](C)NC)C(C)(C)C)C3)ccc2c1)C(=O)N[C@H](C)C(C)C)C1CCCCC1 [Compound H-11] | – | – | – | > 1 | – | –
CN[C@@H](C)C(=O)N[C@@H](CCCCNC(=O)CCCCCCC(=O)NCCCC[C@H](NC(=O)[C@H](C)NC)C(=O)N1CCC[C@H]1C(=O)N[C@@H]1CCCc2ccccc21)C(=O)N1CCC[C@H]1C(=O)N[C@@H]1CCCc2ccccc21 [Compound P2-34] | – | – | – | > 1 | 0.04 | 0.064
CN[C@@H](C)C(=O)NC(C(=O)N1CCC[C@H]1C(=O)NC1CCCc2ccccc21)c1ccc(CCc2ccc([C@H](NC(=O)[C@H](C)NC)C(=O)N3CCC[C@H]3C(=O)NC3CCCc4ccccc43)cc2)cc1 (stereo partly shown) [Compound P2-35] | – | – | – | > 1 | 0.007 | 0.007
CN[C@@H](C)C(=O)N[C@@H](CCCCNC(=O)c1cccc(C(=O)NCCCC[C@H](NC(=O)[C@H](C)NC)C(=O)N2C[C@@H](Oc3ccccc3)C[C@H]2C(=O)N[C@@H]2CCCc3ccccc32)c1)C(=O)N1C[C@@H](Oc2ccccc2)C[C@H]1C(=O)N[C@@H]1CCCc2ccccc21 [Compound P2-36] | – | – | – | > 1 | 0.079 | 0.09
